Values quoted from earlier work in patent publication US10543277B2, “Formulation of curcumin with enhanced bioavailability of curcumin and method of preparation and treatment thereof” (ARJUNA NATURAL PRIVATE LIMITED, priority 2005, dated 2020).

Assays:
oral premalignancy = conditions: for responded to maintenance therapy or continued to have stable lesions / subjects who responded to maintenance therapy or continued to have stable lesions: maintenance phase; for subjects who responded to maintenance therapy or continued to have stable lesions: 53 evaluable
[1] = tested on: LOX (lipoxygenase) pathway; conditions: 10 μM
COX pathway = conditions: 10 μM
[2] = among the 24 13-cRA subjects, 1-2 mg/kg/day for three months

| Structure (SMILES) | subjects with complete responses (OPLs; [2]) | subjects with partial responses (OPLs; [2]) | relapse after end of therapy (OPLs; in vivo) | subjects with intolerable conjunctivitis and hypertriglyceridemia (OPLs; receiving 2 mg/kg) | rate of response at the conclusion of induction (oral premalignancy; high-dose induction therapy) | rate of stable disease at the conclusion of induction (oral premalignancy; high-dose induction therapy) | responded to maintenance therapy or continued to have stable lesions (oral premalignancy) | subjects who responded to maintenance therapy or continued to have stable lesions (oral premalignancy) | inhibition of conversion of arachidonic acid to 5-hydroxyeicosatetraenoic acid [1] | inhibition of conversion of arachidonic acid to 8-hydroxyeicosatetraenoic acid [1] | inhibition of metabolism of arachidonic acid to PGD2 (COX pathway) | inhibition of metabolism of arachidonic acid to PGE2 (COX pathway) | inhibition of metabolism of arachidonic acid to PGF2α (COX pathway) |
| --- | --- | --- | --- | --- | --- | --- | --- | --- | --- | --- | --- | --- | --- |
| CC1=C(/C=C/C(C)=C/C=C/C(C)=C\C(=O)O)C(C)(C)CCC1 [13-cRA, 13-cis-retinoic acid] | 2 | 14 | 2-3 months | 2 | 55% | 35% | 92% | 22 |  |  |  |  |  |
| COc1cc(/C=C/C(=O)CC(=O)/C=C/c2ccc(O)c(OC)c2)ccc1O [Curcumin, 1,7-bis(4-hydroxy-3-methoxyphenyl)-1,6-heptadiene-3,5-dione] |  |  |  |  |  |  |  |  | 60% | 51% | 73% | 70% | 64% |
| CC1=C(/C=C/C(C)=C/C=C/C(C)=C/C=C/C=C(C)/C=C/C=C(C)/C=C/C2=C(C)CCCC2(C)C)C(C)(C)CCC1 [β-carotene] |  |  |  |  |  |  | 45% | 13 |  |  |  |  |  |
